No end group written: not given here.
Columns and labels:
[1] = tested on: mice challenged intratracheally with a single dose bleomycin (BLM); experiment: Acute BLM challenge model (intratracheal 0.08 U BLM), therapeutic regimen with CPP-DPs; assay type: in vivo, mouse; details: for collagen accumulation in lung / pulmonary IL-33 accumulation: end of 3 weeks, vs PBS-treated animals; for total body weight over time: intraperitoneal once a day from day 8 for 2 weeks, vs BLM-challenged, PBS-treated mice
Description: FIG. 5. Therapeutic effects of CPP-DPs in the acute BLM challenge model. A. Time course schematic of the acute BLM challenge model. […] Data in panels B and C were pooled data from separate 3 experiments.
To test the ability of these peptides to deplete the levels of IL-33 in vivo and to assess their ability to modulate the degree of pulmonary fibrosis, these peptides were synthesized, HPLC-purified, and tested in the therapeutic regimen in mice challenged intratracheally with a single dose bleomycin (BLM). In this acute BLM challenge mode, mice received intratracheal 0.08 U of BLM or an equal volume phosphate-buffered saline (PBS) control and allowed to respond to such injury for a week without any intervention. On day 8, intraperitoneal administrations of CPP-DPs once a day were started and continued for 2 weeks. In the end of the 3 weeks, mice have been euthanized, lungs extracted, and pulmonary levels of IL-33 and collagen measured.

IL-33 = experiment: Initial cell culture screening tests of Series 2 peptides for depletion of IL-33; assay type: cell-based; details: TAT-fused Series 2 peptide, most pronounced of the series
Description: We propose development of a new IL-33 attenuating therapy based on CPP-DP-based strategy. […] In each peptide 1-1 and 1-2, the CPP penetratin was N-terminally fused to the DP. The final sequences of peptides 1-1 and 1-2 were […] (SEQ ID NO:69) and ROIKIWFONRRMKWKKFRRETTKRPSLKTG (SEQ ID NO:70), respectively, with the CPP portion shown in italic and the DP portions underlined. Primary fibroblasts were electroporated with FLIL33-encoding and, separately, control non-coding vehicle (NULL) plasmids, and, after 24 h, the medium was replaced with added peptides 1-1 or 1-2. Based on our experience with CPP-DPs, initial concentrations of 20 μM and 40 μM were tested. After an additional 24 h, cells were lysed and the lysates were analyzed for the levels of IL-33 by ELISA. […] The most likely explanation for this effect is based on our previous experience of depleting IPOS with CRISPR-Cas9, AdV-shRNA, and siRNA technologies (Clerman et al., J Biol Chem. (2017). 292:21653-61: Kopach et al., J Biol Chem. (2014). 289:11829-43). […]
Studies in human and mouse cell cultures. […] CPP-DPs and control CPPs will be added to cell culture, and the levels of the overexpressed proteins assessed in cell lysates by ELISA as well as by WB for the HA-tag, which is attached to the C-terminus of all of these proteins.

[2] = tested on: Wild-type C57BL/6 mice challenged with BLM; experiment: Acute BLM model in vivo (single intratracheal 0.075 U BLM), therapeutic regimen with Series 2 peptides; set-up: species or system mouse; details: for pulmonary levels of IL-33 (ELISA, lung homogenates) / total lung collagen (QuickZyme assay): 10 nmol/g intraperitoneal daily on days 5-13, day 14; for signs of toxicity (ruffled fur, hunched posture, reduced mobility, diarrhea, weight lost, tachypnea) / therapeutic effect against fibrosis: acute BLM injury model; for signs of toxicity (ruffled fur, hunched posture, reduced mobility, diarrhea, weight lost, tachypnea): in vivo; for therapeutic effect against fibrosis: therapeutic mode
Description: FIG. 2. Design of decoy peptides in Series 2 (A), the effects of peptides 2-5 and 2-10 on pulmonary levels of IL-33 (B, D), and collagen (C, D) proteins in the acute BLM model in vivo. In panels B and D, mean ±SD values are shown. […] Wild-type C57BL/6 mice were challenged with a single intratracheal instillation of 0.075 U of BLM or PBS vehicle, and the disease was allowed to evolve for 5 days. On days 5-13, mice received daily intraperitoneal injections of 10 nmol/g of peptides 2-5 or 2-10, or PBS vehicle. Mice were euthanized on day 14, and IL-33 levels measured by ELISA in lung homogenates, whereas total lung collagen was measured using QuickZyme assays.
(§1) We propose development of a new IL-33 attenuating therapy based on CPP-DP-based strategy. […] In each peptide 1-1 and 1-2, the CPP penetratin was N-terminally fused to the DP. The final sequences of peptides 1-1 and 1-2 were […] (SEQ ID NO:69) and ROIKIWFONRRMKWKKFRRETTKRPSLKTG (SEQ ID NO:70), respectively, with the CPP portion shown in italic and the DP portions underlined. Primary fibroblasts were electroporated with FLIL33-encoding and, separately, control non-coding vehicle (NULL) plasmids, and, after 24 h, the medium was replaced with added peptides 1-1 or 1-2. Based on our experience with CPP-DPs, initial concentrations of 20 μM and 40 μM were tested. After an additional 24 h, cells were lysed and the lysates were analyzed for the levels of IL-33 by ELISA. […] The most likely explanation for this effect is based on our previous experience of depleting IPOS with CRISPR-Cas9, AdV-shRNA, and siRNA technologies (Clerman et al., J Biol Chem. (2017). 292:21653-61: Kopach et al., J Biol Chem. (2014). 289:11829-43). We previously observed that a complete or nearly complete depletion of IPO5 using these methodologies quickly leads to cell death, whereas substantial yet incomplete depletion of IPO5 levels abrogates FLIL33 without affecting cell viability. We argue that peptide 1-1 is “too effective” in binding IPO5, thus competing for it not only with FLIL33 but also with other critical molecular partners, and ultimately impeding on cell survival. We then undertook a more rigorous, unbiased approach, based on the following considerations. As stated above in relation to Example 1, there are possible multiple other regions in the N-terminal portion of FLIL33 that control its stability, subcellular localization, secretion, maturation, and functional binding of intracellular molecular partners. Targeting by DPs needs to cover the entire N-terminal part of FLIL33 and be performed in a systematic fashion, and the data integrated with the observations in Examples 1 and 2. […] We began by designing Series 2 of overlapping DPs that together cover the entire N-terminus of FLIL33. In all cases, a different CPP (TAT) is fused on the N terminus, based on the possibility that it may decrease the peptide load per cell and thus limit toxicity. […] We then proceeded to test the capacity of this peptide to deplete the levels of IL-33 in vivo and to determine whether such depletion may be protective, in the therapeutic mode, against fibrosis in the acute BLM injury model. […] Thus, peptide 2-5 fused with TAT may be a promising therapeutic agent. However, this and other peptides in this series need to be considered in detail.

[3] = tested on: mice chronically challenged with BLM; experiment: Chronic BLM challenge model (BLM intraperitoneally twice a week for 33 days), treatment with CPP-DPs; assay type: in vivo, mouse; details: for total body weight over time: intraperitoneal three times a week, started after 14 days of challenge
Description: FIG. 6. Therapeutic effects of CPP-DPs in the chronic BLM challenge model. A. Time course schematic of the chronic BLM challenge model. B. Time-dependent changes in total body weight (mean percent of initial body weight ±SD. Asterisks indicate higher (p<0.05) body weights in CPP-DP-treated compared to PBS control-treated mice. C. Individual collagen levels, μg per mg of wet lung tissue (left), and IL-33 levels, pg per mg of wet lung tissue (right), in lung homogenates from mice treated as indicated. Asterisks indicate lower (p<0.05) levels in BLM-challenged, PBS-treated control mice.
We then considered that such acute model of bleomycin injury, despite its universal use in this field of work, is well known to represent the chronic nature of human pulmonary fibrosis less accurately than the chronic model of systemic BLM delivery. In the chronic model, BLM is injected intraperitoneally twice a week for 33 days, with subsequent assessment of pulmonary changes (FIG. 6A). We challenged mice in this fashion, and, after 14 days such chronic challenge at which point the decline in their total body weight became obvious (FIG. 6B), initiated treatment with CPP-DP5, CPP-DP10, or PBS injected intraperitoneally three times a week (FIG. 6A). […] Of note, such therapy with CPP-DP5 was efficacious despite the continued challenge with repeated administration of BLM (FIG. 6A).

Primary fibroblasts = experiment: Cell viability / toxicity of peptides in FLIL33-overexpressing or NULL-transfected primary fibroblasts; assay type: cell-based; details: for effect on cell viability (toxicity to cells): initial concentrations of 20 μM and 40 μM, FLIL33-overexpressing or NULL-transfected fibroblasts, 24 h
Description: as §1

[4] = vs CPP-DP10-treated and PBS-treated controls

Substance: SGLMIKKEACYFRRET [2-7]
- collagen accumulation in lung [1]: significantly less collagen
- pulmonary IL-33 accumulation [1]: significantly less
- total body weight over time [1]: quickly recovered their body weight

Substance: QQKAKEVCPMYFMKLR [peptide 2-5]
- depletion of IL-33 (IL-33): exceeding 60 % of the original levels
- pulmonary levels of IL-33 (ELISA, lung homogenates) [2]: attenuated the levels of IL-33
- total lung collagen (QuickZyme assay) [2]: arrested deposition of collagen
- signs of toxicity (ruffled fur, hunched posture, reduced mobility, diarrhea, weight lost, tachypnea) [2]: Neither of these two peptides caused any signs of toxicity
- therapeutic effect against fibrosis [2]: encouraging therapeutic effect
- collagen accumulation in lung [1]: significantly less collagen
- pulmonary IL-33 accumulation [1]: significantly less
- total body weight over time [1]: quickly recovered their body weight
- total body weight over time [3]: regained their body weight in a time-dependent fashion
- collagen accumulation in lung [3, 4]: significantly less collagen
- pulmonary IL-33 accumulation [3, 4]: significantly less

Substance: RQIKIWFQNRRMKWKKFMKLRSGLMIKKEA-NH2 [peptide 1-1]
- effect on cell viability (toxicity to cells) (Primary fibroblasts): highly toxic to cells
- concentrations at which the peptide remains toxic (as low as) (Primary fibroblasts; serial dilutions): ≥ 2500 nM
- toxicity at concentrations lower than 2.5 μM (Primary fibroblasts; serial dilutions, lower concentrations): becomes non-toxic

Substance: RQIKIWFQNRRMKWKKFRRETTKRPSLKTG-NH2 [peptide 1-2, ROIKIWFONRRMKWKKFRRETTKRPSLKTG]
- effect on cell viability (toxicity to cells) (Primary fibroblasts): no effect on cell viability

Substance: GRKHKRHLVLAACQQQ [peptide 2-10]
- pulmonary levels of IL-33 (ELISA, lung homogenates) [2]: not
- total lung collagen (QuickZyme assay) [2]: not
- signs of toxicity (ruffled fur, hunched posture, reduced mobility, diarrhea, weight lost, tachypnea) [2]: Neither of these two peptides caused any signs of toxicity
- therapeutic effect against fibrosis [2]: did not
- collagen accumulation in lung [1]: not
- total body weight over time [1]: closely followed the same trend
- total body weight over time [3]: not
